# Data as given in patent US9315503B2, “Kinase inhibitors” (CHIESI FARMACEUTICI S.p.A., priority 2011, dated 2016).
# Counter-ions that a name gives are not always drawn.
# Target: T1, p38alpha (Homo sapiens, UniProt Q16539)
# T1 construct: purchased Invitrogen PV3304
# Test: P38Alpha enzyme inhibition assay (Alphascreen kinase activity assay)
# Type: biochemical
# Conditions: 100 pM p38alpha, 250 μM ATP, 2 hours pre-incubation at 25° C., read-out: p38α inhibition (IC50 values)
# Experimental: P38Alpha Enzyme Inhibition Assay.
# The inhibitory activity of compounds was determined using an Alphascreen® (Perkin Elmer) based kinase activity assay. Kinase reactions consisted of 25 mM HEPES pH 7.5, 10 mM MgCl2, 100 μM Na3VO4, 2 mM DTT, 0.05 mg/ml Tween 20, 100 pM p38alpha (Invitrogen, PV3304), 1% DMSO and 0.3 μg/ml ATF-2 fusion protein (New England Biolabs, 9224). Compounds were incubated under these conditions for 2 hours, at 25° C., prior to the initiation of the kinase activity by the addition of the 250 μM ATP. Reaction volumes were 20 uL. After 1 hr at 25° C. reactions were stopped by the adding 10 uL of 25 mM HEPES pH 7.5 containing 62.5 mM EDTA, 0.05% Triton X-100, 10% BSA and 0.83 ng/uL anti-phospho-ATF2 antibody (Abeam, ab28812). Detection was performed by measuring luminescence following the addition of Alphascreen Donor beads (Perkin Elmer 6765300) and Protein A Alphascreen Acceptor beads (Perkin Elmer 6760137), both at a final concentration of 20 ug/ml. IC50 values were determined from concentration-response curves.
# T1 sequence (Q16539 whole entry): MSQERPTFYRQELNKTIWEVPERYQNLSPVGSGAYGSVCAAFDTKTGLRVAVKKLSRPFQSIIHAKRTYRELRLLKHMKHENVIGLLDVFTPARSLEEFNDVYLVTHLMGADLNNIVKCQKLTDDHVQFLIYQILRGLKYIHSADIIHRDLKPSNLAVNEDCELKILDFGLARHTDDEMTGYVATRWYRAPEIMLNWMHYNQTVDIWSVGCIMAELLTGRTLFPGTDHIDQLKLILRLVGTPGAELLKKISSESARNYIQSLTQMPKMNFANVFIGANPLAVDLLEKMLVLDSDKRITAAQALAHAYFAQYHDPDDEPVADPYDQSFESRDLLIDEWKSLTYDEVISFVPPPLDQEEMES
row,Structure (SMILES),IC50
1,"Cc1ccc(-n2nc(C(C)(C)C)cc2NC(=O)N[C@H]2CC[C@@H](Oc3ccc4nnc([C@@H]5CCCN5)n4c3)c3ccccc32)cc1 [Example 6, 1-(5-tert-Butyl-2-p-tolyl-2H-pyrazol-3-yl)-3-[(1S,4R)-4-((S)-3-pyrrolidin-2-yl-[1,2,4]triazolo[4,3-a]pyridin-6-yloxy)-1,2,3,4-tetrahydro-naphthalen-1-yl]-urea]",< 10 nM
2,"Cc1ccc(-n2nc(C(C)(C)C)cc2NC(=O)N[C@H]2CC[C@@H](OCCN3CCOCC3)c3ccccc32)cc1 [Example 32, 1-(5-tert-Butyl-2-p-tolyl-2H-pyrazol-3-yl)-3-[(1S,4R)-4-(2-morpholin-4-yl-ethoxy)-1,2,3,4-tetrahydro-naphthalen-1-yl]-urea]",100 to 500 nM
3,"Cc1ccc(-n2nc(C(C)(C)C)cc2NC(=O)N[C@H]2CC[C@@H](Oc3ccc4nnc(N(C)CCN5CCOCC5)n4c3)c3ccccc32)cc1 [Example 45, 1-(5-tert-Butyl-2-p-tolyl-2H-pyrazol-3-yl)-3-((1S,4R)-4-{3-[methyl-(2-morpholin-4-yl-ethyl)-amino]-[1,2,4]triazolo[4,3-a]pyridin-6-yloxy}-1,2,3,4-tetrahydro-naphthalen-1-yl)-urea]",< 10 nM
4,"Cc1ccc(-c2nc(C(C)(C)C)[nH]c2NC(=O)N[C@H]2CC[C@@H](Oc3ccc4nnc(N5CCCCC5)n4c3)c3ccccc32)cc1 [Example 51, 1-(2-tert-Butyl-5-p-tolyl-3H-imidazol-4-yl)-3-[(1S,4R)-4-(3-piperidin-1-yl-[1,2,4]triazolo[4,3-a]pyridin-6-yloxy)-1,2,3,4-tetrahydro-naphthalen-1-yl]-urea]",< 10 nM
5,"Cc1ccc(-n2nc(C(C)(C)C)cc2NC(=O)N[C@H]2CC[C@@H](Oc3ccc4nnc(CN5CCN(C)C(CO)C5)n4c3)c3ccccc32)cc1 (stereo partly drawn) [Example 56, 1-(5-tert-Butyl-2-p-tolyl-2H-pyrazol-3-yl)-3-{(1S,4R)-4-[3-(3-hydroxymethyl-4-methyl-piperazin-1-ylmethyl)-[1,2,4]triazolo[4,3-a]pyridin-6-yloxy]-1,2,3,4-tetrahydro-naphthalen-1-yl}-urea]",< 10 nM
6,"Cc1ccc(-n2nc(C(C)(C)C)cc2NC(=O)N[C@H]2CC[C@@H](Oc3ccc4nnc([C@@H]5C[C@@H](F)CN5C)n4c3)c3ccccc32)cc1 [Example 91, 1-(5-tert-Butyl-2-p-tolyl-2H-pyrazol-3-yl)-3-{(1S,4R)-4-[3-((2S,4R)-4-fluoro-1-methyl-pyrrolidin-2-yl)-[1,2,4]triazolo[4,3-a]pyridin-6-yloxy]-1,2,3,4-tetrahydro-naphthalen-1-yl}-urea]",< 10 nM
7,"C[C@H]1CCCCN1c1nnc2ccc(O[C@@H]3CC[C@H](NC(=O)Nc4cc(C(C)(C)C)nn4-c4cccc(CCN5CCOCC5)c4)c4ccccc43)cn12 [Example 131, 1-{5-tert-Butyl-2-[3-(2-morpholin-4-yl-ethyl)-phenyl]-2H-pyrazol-3-yl}-3-{(1S,4R)-4-[3-((S)-2-methyl-piperidin-1-yl)-[1,2,4]triazolo[4,3-a]pyridin-6-yloxy]-1,2,3,4-tetrahydro-naphthalen-1-yl}-urea formate salt]",< 10 nM
8,"C[C@H]1CCCCN1c1nnc2ccc(O[C@@H]3CC[C@H](NC(=O)Nc4cc(C(C)(C)C)nn4-c4cccc(CCN5CCCC5)c4)c4ccccc43)cn12 [Example 132, 1-{5-tert-Butyl-2-[3-(2-pyrrolidin-1-yl-ethyl)-phenyl]-2H-pyrazol-3-yl}-3-{(1S,4R)-4-[3-((S)-2-methyl-piperidin-1-yl)-[1,2,4]triazolo[4,3-a]pyridin-6-yloxy]-1,2,3,4-tetrahydro-naphthalen-1-yl}-urea formate salt]",< 10 nM
9,"CCN(C)CCc1cccc(-n2nc(C(C)(C)C)cc2NC(=O)N[C@H]2CC[C@@H](Oc3ccc4nnc(N5CCCC[C@@H]5C)n4c3)c3ccccc32)c1 [Example 133, 1-(5-tert-Butyl-2-{3-[2-(ethyl-methyl-amino)-ethyl]-phenyl}-2H-pyrazol-3-yl)-3-{(1S,4R)-4-[3-((S)-2-methyl-piperidin-1-yl)-[1,2,4]triazolo[4,3-a]pyridin-6-yloxy]-1,2,3,4-tetrahydro-naphthalen-1-yl}-urea formate salt]",< 10 nM
10,"C[C@H]1CCCCN1c1nnc2ccc(O[C@@H]3CC[C@H](NC(=O)Nc4cc(C(C)(C)C)nn4-c4cccc(CCN(C)C)c4)c4ccccc43)cn12 [Example 134, 1-{5-tert-Butyl-2-[3-(2-dimethylamino-ethyl)-phenyl]-2H-pyrazol-3-yl}-3-{(1S,4R)-4-[3-((S)-2-methyl-piperidin-1-yl)-[1,2,4]triazolo[4,3-a]pyridin-6-yloxy]-1,2,3,4-tetrahydro-naphthalen-1-yl}-urea formate salt]",< 10 nM
11,"C[C@H]1CCCCN1c1nnc2ccc(O[C@@H]3CC[C@H](NC(=O)Nc4cc(C(C)(C)C)nn4-c4cccc(CCN5CCCCC5)c4)c4ccccc43)cn12 [Example 135, 1-{5-tert-Butyl-2-[3-(2-piperidin-1-yl-ethyl)-phenyl]-2H-pyrazol-3-yl}-3-{(1S,4R)-4-[3-((S)-2-methyl-piperidin-1-yl)-[1,2,4]triazolo[4,3-a]pyridin-6-yloxy]-1,2,3,4-tetrahydro-naphthalen-1-yl}-urea formate salt]",< 10 nM
12,"C[C@H]1CCCCN1c1nnc2ccc(O[C@@H]3CC[C@H](NC(=O)Nc4cc(C(C)(C)C)nn4-c4cccc(CCN5CCN(C)CC5)c4)c4ccccc43)cn12 [Example 136, 1-(5-tert-Butyl-2-{3-[2-(4-methyl-piperazin-1-yl)-ethyl]-phenyl}-2H-pyrazol-3-yl)-3-{(1S,4R)-4-[3-((S)-2-methyl-piperidin-1-yl)-[1,2,4]triazolo[4,3-a]pyridin-6-yloxy]-1,2,3,4-tetrahydro-naphthalen-1-yl}-urea formate salt]",< 10 nM
13,"C[C@H]1CCCCN1c1nnc2ccc(O[C@@H]3CC[C@H](NC(=O)Nc4cc(C(C)(C)C)nn4-c4cccc(CCN5CCCOCC5)c4)c4ccccc43)cn12 [Example 137, 1-{5-tert-Butyl-2-[3-(2-[1,4]oxazepan-4-yl-ethyl)-phenyl]-2H-pyrazol-3-yl}-3-{(1S,4R)-4-[3-((S)-2-methyl-piperidin-1-yl)-[1,2,4]triazolo[4,3-a]pyridin-6-yloxy]-1,2,3,4-tetrahydro-naphthalen-1-yl}-urea formate salt]",< 10 nM
14,"C[C@H]1CCCCN1c1nnc2ccc(O[C@@H]3CC[C@H](NC(=O)Nc4cc(C(C)(C)C)nn4-c4cccc(CCN5CCCN(C)CC5)c4)c4ccccc43)cn12 [Example 138, 1-(5-tert-Butyl-2-{3-[2-(4-methyl-[1,4]diazepan-1-yl)-ethyl]-phenyl}-2H-pyrazol-3-yl)-3-{(1S,4R)-4-[3-((S)-2-methyl-piperidin-1-yl)-[1,2,4]triazolo[4,3-a]pyridin-6-yloxy]-1,2,3,4-tetrahydro-naphthalen-1-yl}-urea formate salt]",< 10 nM
15,"C[C@H]1COCCN1c1nnc2ccc(O[C@@H]3CC[C@H](NC(=O)Nc4cc(C(C)(C)C)nn4CCO)c4ccccc43)cn12 [Example 139, 1-[5-tert-Butyl-2-(2-hydroxy-ethyl)-2H-pyrazol-3-yl]-3-{(1S,4R)-4-[3-((S)-3-methyl-morpholin-4-yl)-[1,2,4]triazolo[4,3-a]pyridin-6-yloxy]-1,2,3,4-tetrahydro-naphthalen-1-yl}-urea]",< 10 nM
16,C[C@H]1CCCCN1c1nnc2ccc(O[C@@H]3CC[C@H](NC(=O)Nc4cc(C(C)(C)C)nn4-c4ccnc(N(C)CCN(C)C)n4)c4ccccc43)cn12 [Example 140],< 10 nM
17,"C[C@H]1COCCN1c1nnc2ccc(O[C@@H]3CC[C@H](NC(=O)Nc4cc(C(C)(C)C)nn4-c4cccc(OCCN(C)C)c4)c4ccccc43)cn12 [Example 141, 1-{5-tert-Butyl-2-[3-(2-dimethylamino-ethoxy)-phenyl]-2H-pyrazol-3-yl}-3-{(1S,4R)-4-[3-((S)-3-methyl-morpholin-4-yl)-[1,2,4]triazolo[4,3-a]pyridin-6-yloxy]-1,2,3,4-tetrahydro-naphthalen-1-yl}-urea formate salt]",< 10 nM
18,"C[C@H]1COCCN1c1nnc2ccc(O[C@@H]3CC[C@H](NC(=O)Nc4cc(C(C)(C)C)nn4CCN4CCOCC4)c4ccccc43)cn12 [Example 142, 1-[5-tert-Butyl-2-(2-morpholin-4-yl-ethyl)-2H-pyrazol-3-yl]-3-{(1S,4R)-4-[3-((S)-3-methyl-morpholin-4-yl)-[1,2,4]triazolo[4,3-a]pyridin-6-yloxy]-1,2,3,4-tetrahydro-naphthalen-1-yl}-urea formate salt]",< 10 nM
19,"C[C@@H]1CCC[C@H](C)N1c1nnc2ccc(O[C@@H]3CC[C@H](NC(=O)Nc4cc(C(C)(C)C)nn4-c4cccc(CN5CCN(C)CC5)c4)c4ccccc43)cn12 [Example 143, 1-{5-tert-Butyl-2-[3-(4-methyl-piperazin-1-ylmethyl)-phenyl]-2H-pyrazol-3-yl}-3-{(1S,4R)-4-[3-((2S,6R)-2,6-dimethyl-piperidin-1-yl)-[1,2,4]triazolo[4,3-a]pyridin-6-yloxy]-1,2,3,4-tetrahydro-naphthalen-1-yl}-urea formate salt]",< 10 nM
